# According to patent publication US20250120394A1, “SILANE SURFACTANT FOR AGRICULTURAL USE” (MOMENTIVE PERFORMANCE MATERIALS INC., priority 2023, published 2025):
# Counter-ions that a name gives are not always drawn.
# Tests used:
# Type in all cases: in vivo
# [1] = test system: Redroot pigweed (Amaranthus retroflexus, EPPO Code: AMARE); assay: Effect of adjuvant on performance of 2,4-D Amine, lab spray trial, visual weed control; details: 2,4-D amine 0.25 wt % alone, no adjuvant
# Description: (§1) Spray Protocol: A lab spray trial was conducted to evaluate the effect of the silane compositions in accordance with the present technology on the performance of various herbicides.
# (§2) Target weeds were grown from seed, under controlled conditions in a “Caron Model 7301-50-2” Growth chamber using simulated full sunlight. Sprays were applied to the target weeds at the 4-6 leaf growth stage using a DeVries Generation 4—Research Track Sprayer with a T-Jet 8002E nozzle at an equivalent spray volume of 100 L/ha.
# SIL-8 was compared to a conventional trisiloxane alkoxylate (TSA-1) as a spray adjuvant, to improve the performance of 2,4-D Amine (herbicide) on AMARE. The spray protocol is described above. The 2,4-D Amine was applied at a sub lethal dose (25% of label rate) to show the impact of the adjuvant on performance. Assessment of weed control was made by a visual observation as compared to an untreated check.
# [2] = test system: red banded stink bug (Piezodorus guildinii); assay: Field trial: control of stink bug on green beans with Cefanol acephate plus adjuvant; details: Cefanol acephate 0.50 kg/ha alone
# Description: A composition of the present invention (SIL-8) was compared to a conventional trisiloxane alkoxylate (TSA-2) for the improvement of the insecticide acephate in the control of stink-bug.
# The experiment was conducted with a randomized block design, with 6 treatments (including the untreated check) and 4 repetitions. Each plot was of 12 m^2 in area. The data obtained were subjected to analysis of variance and the average of the treatments compared using the Tukey test to 5% probability test.
# During the trial there were […] evaluation periods: 0, 3, 5 and 7 Days After Application (DAA), for determining the number of red banded stink bugs in each plot evaluated.
# The treatments were applied using a CO2 pressurized Backpack sprayer, with 4 nozzles spaced 50 cm between each one. Nozzles type XR11002 (Flat Fan) and a spray volume 150 L·ha.
# [3] = test system: Yellow Foxtail (Setaria pumila); assay: Control of Yellow Foxtail with glyphosate-isopropylamine salt, visual weed control; details: glyphosate-isopropylamine salt 0.75% a.i. alone, adjuvant 0
# Description: as §1, §2
# Glyphosate-isopropylamine salt was applied at 0.75% a.i. to Yellow foxtail at a 15 cm growth-stage. The spray mixtures were applied either as herbicide alone, or in combination with the silane compositions SIL-6, SIL-9 and SIL-12 at an equivalent spray volume of 100 L/ha. A visual assessment of weed control was made at 7 and 14 Days After Treatment (DAT). The application method is the same as previously described.
structure (smiles),measurement,setting,value
"CNC.O=C(O)COc1ccc(Cl)cc1Cl [2,4-D amine, 2,4-D Amine]","Weed control of AMARE, 7-DAT",[1],46%
same,"Weed control of AMARE, 14-DAT",[1],55%
COP(=O)(NC(C)=O)SC (centres unmarked) [Acephate],"Eff. %, 1 DAA",[2],76.0%
same,"Eff. %, 3 DAA",[2],60.0%
same,"Eff. %, 5 DAA",[2],45.5%
same,"Eff. %, 7 DAA",[2],63.6%
same,"Number of red banded stink bug, 1 DAA",[2],0.5 b
same,"Number of red banded stink bug, 3 DAA",[2],0.7 b
same,"Number of red banded stink bug, 5 DAA",[2],0.5 a
same,"Number of red banded stink bug, 7 DAA",[2],0.3 b
same,"Eff. %, 0 DAA",[2]; 0 DAA (initial),0.0%
same,"Number of red banded stink bug, 0 DAA",[2]; 0 DAA (initial),1.8 a
"O=C(O)CNCP(=O)(O)O [Glyphosate, Glyphosate-isopropylamine salt]","Weed control of Yellow foxtail, 7 DAT",[3],20
same,"Weed control of Yellow foxtail, 14 DAT",[3],92
